Assay results: patent US12239132B2, “Compounds and methods for increasing soil nutrient availability” (SOUND AGRICULTURE COMPANY, priority 2018, dated 2025)

System: Bradyrhizobium japonicum
Test: RNASeq gene expression in Bradyrhizobium japonicum
Type: cell-based
Description: Expression levels for all genes in a nitrogen fixing bacteria (Bradyrhizobium japonicum) were measured in the presence or absence of AB09 using Illumina RNASeq technology.

CC1=CC(Oc2c(C)occc2=O)OC1=O (stereo not shown) [AB09, maltol lactone]
gene expression (Illumina RNASeq) in presence vs absence of AB09: induced genetic regulators and pathways for nitrogen fixation and for microaerophilic growth
